Read-outs that look alike come from different tables or passages of the source. Values belong to the compound of their own block, whether it stands above or below them. Numbered stars: 1 amine (or outer) side, 2 acyl side, 3 side chain; on linkers, the order of the positions; unused ones are H or OH. Square brackets hold non-standard residues; d marks the D form. Side chains are listed from the residue outwards. Peptide text beside a SMILES is read from it. * marks the point of attachment. γGlu = O=C(O)[C@H](CCC(=O)[*:2])N[*:1]; αMeF = C[C@](N)(Cc1ccccc1)C(=O)O; αMeK = C[C@](N)(CCCCN)C(=O)O; Lauroyl = CCCCCCCCCCCC(=O)*; αMeS = C[C@](N)(CO)C(=O)O; AEEA = NCCOCCOCC(=O)O; Aib = CC(C)(N)C(=O)O
Tests used:
Type in all cases: cell-based
[1] = molecular target: T1, human GLP-1 receptor (GLP-1R) (Homo sapiens, UniProt P43220); assay: cAMP assay, human GLP-1R cells; conditions: cAMP activity
T1 construct: expressed in transfected cells; host or cells: HEK293 cells or CHO cells
T1 sequence (P43220 24-463): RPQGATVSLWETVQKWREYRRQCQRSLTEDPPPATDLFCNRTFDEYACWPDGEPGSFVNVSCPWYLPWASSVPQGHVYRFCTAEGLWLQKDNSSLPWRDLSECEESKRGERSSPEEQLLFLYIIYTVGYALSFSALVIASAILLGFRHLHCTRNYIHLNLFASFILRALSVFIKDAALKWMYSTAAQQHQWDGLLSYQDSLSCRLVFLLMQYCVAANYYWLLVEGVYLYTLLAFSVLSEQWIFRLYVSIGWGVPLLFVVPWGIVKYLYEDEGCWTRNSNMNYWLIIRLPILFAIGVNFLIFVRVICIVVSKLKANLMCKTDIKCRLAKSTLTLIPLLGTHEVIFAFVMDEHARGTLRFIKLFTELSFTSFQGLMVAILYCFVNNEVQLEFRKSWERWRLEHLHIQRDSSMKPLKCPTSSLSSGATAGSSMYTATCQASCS
Outline: (§1)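 Peptide-stimulated cAMP measured by two-step HTRF after a 30 min room-temperature incubation with receptor-expressing cells (hGLP-1R, hGIPR at 1×10^5 cells/ml; hGCGR at 2×10^5 cells/ml). Duplicate dilutions; EC50 from 4-parameter logistic fit of % Delta F.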

[2] = molecular target: T2, GLP-1R (INS1e cells) (Rattus norvegicus, UniProt P32301); assay: INS1e assay, cAMP activity at GLP-1R
T2 construct: endogenous in cells; host or cells: INS1e cells
T2 sequence (P32301 22-463): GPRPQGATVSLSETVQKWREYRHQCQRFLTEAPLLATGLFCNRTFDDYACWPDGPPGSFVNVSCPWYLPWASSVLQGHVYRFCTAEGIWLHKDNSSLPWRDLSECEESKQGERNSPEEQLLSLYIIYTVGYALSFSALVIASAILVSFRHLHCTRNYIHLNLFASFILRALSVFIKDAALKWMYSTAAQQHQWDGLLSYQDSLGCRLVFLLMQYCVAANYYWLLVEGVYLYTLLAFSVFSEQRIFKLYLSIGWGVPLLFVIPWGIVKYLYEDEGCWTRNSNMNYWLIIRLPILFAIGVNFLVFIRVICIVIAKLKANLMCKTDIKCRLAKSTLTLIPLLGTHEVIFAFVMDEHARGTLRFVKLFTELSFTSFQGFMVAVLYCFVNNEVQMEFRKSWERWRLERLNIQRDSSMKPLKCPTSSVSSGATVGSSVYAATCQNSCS

[3] = molecular target: T3, human glucagon receptor (GCGR) (Homo sapiens, UniProt P47871); assay: cAMP assay, human GCGR cells
T3 construct: expressed in transfected cells; host or cells: HEK293 cells or CHO cells
T3 sequence (P47871 26-477): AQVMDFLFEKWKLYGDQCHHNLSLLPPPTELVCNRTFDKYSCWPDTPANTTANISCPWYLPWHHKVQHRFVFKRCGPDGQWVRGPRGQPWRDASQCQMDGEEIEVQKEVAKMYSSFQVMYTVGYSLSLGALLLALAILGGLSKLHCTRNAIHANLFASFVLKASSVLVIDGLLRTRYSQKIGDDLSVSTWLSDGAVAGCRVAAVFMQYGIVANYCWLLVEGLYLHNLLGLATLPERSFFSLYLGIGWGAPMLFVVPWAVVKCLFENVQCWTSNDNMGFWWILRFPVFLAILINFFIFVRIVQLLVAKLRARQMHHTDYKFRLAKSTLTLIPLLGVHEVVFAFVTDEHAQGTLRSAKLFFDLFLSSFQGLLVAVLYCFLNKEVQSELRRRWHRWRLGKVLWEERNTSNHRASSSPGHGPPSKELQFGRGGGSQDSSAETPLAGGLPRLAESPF
Outline: as §1

[4] = molecular target: T4, human glucose-dependent insulinotropic peptide receptor (GIPR) (Homo sapiens, UniProt P48546); assay: cAMP assay, human GIPR cells
T4 construct: expressed in transfected cells; host or cells: HEK293 cells or CHO cells
T4 sequence (P48546 22-466): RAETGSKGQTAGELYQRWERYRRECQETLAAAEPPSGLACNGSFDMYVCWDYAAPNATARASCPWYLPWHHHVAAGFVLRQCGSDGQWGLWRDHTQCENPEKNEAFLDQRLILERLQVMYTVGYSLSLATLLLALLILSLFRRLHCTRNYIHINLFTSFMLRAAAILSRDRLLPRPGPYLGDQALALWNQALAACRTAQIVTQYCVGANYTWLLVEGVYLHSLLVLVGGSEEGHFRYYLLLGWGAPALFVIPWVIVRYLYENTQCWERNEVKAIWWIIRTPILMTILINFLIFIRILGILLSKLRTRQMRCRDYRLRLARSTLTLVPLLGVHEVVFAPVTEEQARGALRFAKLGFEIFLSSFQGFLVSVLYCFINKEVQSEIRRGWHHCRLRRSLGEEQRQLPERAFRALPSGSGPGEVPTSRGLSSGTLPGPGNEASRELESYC
Outline: as §1

[5] = mean of n1 and n2, read-out: Mean pM GLP-1R
[6] = Table 8, substituted and mono-lipidated peptides, mean of n1 and n2, read-out: INS1e assay EC50 Mean pM GLP-1R
[7] = Table 8, substituted and mono-lipidated peptides, replicate n2, read-out: INS1e assay EC50 GLP-1R n2

- EC50 [1, 5]: 6.7 pM
- EC50 [2, 6]: 455 pM
Compound: CC[C@H](C)[C@H](NC(=O)[C@](C)(Cc1ccccc1)NC(=O)[C@H](CCC(=O)O)NC(=O)[C@H](CCC(=O)O)NC(=O)[C@H](C)NC(=O)[C@H](C)NC(=O)[C@H](CCC(=O)O)NC(=O)CNC(=O)[C@H](CCC(=O)O)NC(=O)[C@H](CC(C)C)NC(=O)[C@](C)(Cc1ccccc1)NC(=O)[C@H](CO)NC(=O)[C@](C)(CO)NC(=O)[C@@H](NC(=O)[C@H](CC(=O)O)NC(=O)[C@H](CO)NC(=O)[C@@H](NC(=O)[C@](C)(Cc1ccccc1)NC(=O)[C@H](CO)NC(=O)CNC(=O)[C@H](CCC(=O)O)NC(=O)C(C)(C)NC(=O)[C@@H](N)Cc1c[nH]cn1)[C@@H](C)O)C(C)C)C(=O)N[C@@H](C)C(=O)N[C@@](C)(Cc1ccccc1)C(=O)N[C@H](C(=O)N[C@H](C(=O)N[C@@H](CCC(=O)O)C(=O)NCC(=O)NCC(N)=O)C(C)C)C(C)C [compound 44] (H-H[Aib]EGS[αMeF]TSDV[αMeS]S[αMeF]LEGEAAEE[αMeF]IA[αMeF]VVEGG-NH2)

- EC50 ([1]; first determination (n1), read-out: Primary assay EC50 GLP-1R n1): 920 pM
- EC50 [1, 5]: 1560 pM
- EC50 ([1]; second determination (n2), read-out: Primary assay EC50 GLP-1R n2): 2200 pM
- EC50 ([3]; cAMP activity, second determination (n2), read-out: Primary assay EC50 Gluc-R): ≥ 26 nM
- EC50 ([4]; cAMP activity, first determination (n1), read-out: Primary assay EC50 GIP-R): ≥ 26 nM
- EC50 ([4]; cAMP activity, second determination (n2), read-out: Primary assay EC50 GIP-R): ≥ 26 nM
- EC50 [2, 6]: 68000 pM
- EC50 ([2]; Table 8, substituted and mono-lipidated peptides, replicate n1, read-out: INS1e assay EC50 GLP-1R n1): 52600 pM
- EC50 [2, 7]: 83400 pM
Compound: CC[C@H](C)[C@H](NC(=O)[C@](C)(Cc1ccccc1)NC(=O)[C@H](CCC(=O)O)NC(=O)[C@H](CCCCNC(=O)COCCOCCNC(=O)COCCOCCNC(=O)CC[C@H](NC(=O)CCCCCCCCCCCCCCCCC(=O)O)C(=O)O)NC(=O)[C@H](C)NC(=O)[C@H](C)NC(=O)[C@H](CCC(=O)O)NC(=O)CNC(=O)[C@H](CCC(=O)O)NC(=O)[C@H](CC(C)C)NC(=O)[C@](C)(Cc1ccccc1)NC(=O)[C@H](CO)NC(=O)[C@H](CO)NC(=O)[C@@H](NC(=O)[C@H](CC(=O)O)NC(=O)[C@H](CO)NC(=O)[C@@H](NC(=O)[C@](C)(Cc1ccccc1)NC(=O)[C@H](CO)NC(=O)CNC(=O)[C@H](CCC(=O)O)NC(=O)C(C)(C)NC(=O)[C@@H](N)Cc1c[nH]cn1)[C@@H](C)O)C(C)C)C(=O)N[C@@H](C)C(=O)N[C@@](C)(Cc1ccccc1)C(=O)N[C@H](C(=O)N[C@H](C(=O)N[C@@](C)(CCCCN)C(=O)NCC(=O)NCC(N)=O)C(C)C)C(C)C [compound 46]

- EC50 [2, 6]: 20 pM
Compound: CCCCCCCCCCCCCCCCCC(=O)NCCOCCOCC(=O)NCCOCCOCC(=O)NCCOCCOCC(=O)NCCCC[C@H](NC(=O)[C@H](C)NC(=O)[C@H](C)NC(=O)[C@H](CCC(=O)O)NC(=O)CNC(=O)[C@H](CCC(=O)O)NC(=O)[C@H](CC(C)C)NC(=O)[C@](C)(Cc1ccccc1)NC(=O)[C@H](CO)NC(=O)[C@H](CO)NC(=O)[C@@H](NC(=O)[C@H](CC(=O)O)NC(=O)[C@H](CO)NC(=O)[C@@H](NC(=O)[C@](C)(Cc1ccccc1)NC(=O)[C@H](CO)NC(=O)CNC(=O)[C@H](CCC(=O)O)NC(=O)C(C)(C)NC(=O)[C@@H](N)Cc1c[nH]cn1)[C@@H](C)O)C(C)C)C(=O)N[C@@H](CCC(=O)O)C(=O)N[C@@](C)(Cc1ccccc1)C(=O)N[C@H](C(=O)N[C@@H](C)C(=O)N[C@@](C)(Cc1ccccc1)C(=O)N[C@H](C(=O)N[C@H](C(=O)N[C@@](C)(CCCCN)C(=O)NCC(=O)NCC(N)=O)C(C)C)C(C)C)[C@@H](C)CC [compound 52]

- EC50 [2, 6]: 346 pM
- EC50 [2, 7]: 346 pM
Compound: CCCCCCCCCCCCCCCC(=O)N[C@@H](CCC(=O)NCCCC[C@H](NC(=O)[C@H](CCC(=O)O)NC(=O)[C@](C)(CCCCN)NC(=O)[C@H](C)NC(=O)[C@H](C)NC(=O)[C@H](CCC(=O)O)NC(=O)CNC(=O)[C@H](CCC(=O)O)NC(=O)[C@H](CC(C)C)NC(=O)[C@](C)(Cc1ccccc1)NC(=O)[C@H](CO)NC(=O)[C@](C)(CO)NC(=O)[C@@H](NC(=O)[C@H](CC(=O)O)NC(=O)[C@H](CO)NC(=O)[C@@H](NC(=O)[C@](C)(Cc1ccccc1)NC(=O)[C@H](CO)NC(=O)CNC(=O)[C@H](CCC(=O)O)NC(=O)C(C)(C)NC(=O)[C@@H](N)Cc1c[nH]cn1)[C@@H](C)O)C(C)C)C(=O)N[C@H](C(=O)N[C@@H](C)C(=O)N[C@@](C)(Cc1ccccc1)C(=O)N[C@H](C(=O)N[C@H](C(=O)N[C@@](C)(CCCCN)C(=O)NCC(=O)NCC(N)=O)C(C)C)C(C)C)[C@@H](C)CC)C(=O)O [compound 78]

- EC50 ([3]; Table 9, bis-lipidated peptides, first replicate, read-out: Primary assay EC50 Gluc-R (n1)): ≥ 22.2 nM
- EC50 ([3]; Table 9, bis-lipidated peptides, second replicate, read-out: Primary assay EC50 Gluc-R (n2)): ≥ 22.2 nM
- EC50 ([4]; Table 9, bis-lipidated peptides, first replicate, read-out: Primary assay EC50 GIP-R (n1)): ≥ 22.2 nM
- EC50 ([4]; Table 9, bis-lipidated peptides, second replicate, read-out: Primary assay EC50 GIP-R (n2)): ≥ 22.2 nM
- EC50 ([2]; Table 10, bis-lipidated peptides, mean of n1 and n2, read-out: INS1e assay EC50 Mean pM GLP-1R): 1300 pM
Compound: CCCCCCCCCCCC(=O)N[C@@H](CCC(=O)NCCOCCOCC(=O)NCCOCCOCC(=O)NCCCC[C@H](NC(=O)[C@H](CC(=O)O)NC(=O)[C@H](CO)NC(=O)[C@@H](NC(=O)[C@](C)(Cc1ccccc1)NC(=O)[C@H](CO)NC(=O)CNC(=O)[C@H](CCC(=O)O)NC(=O)C(C)(C)NC(=O)[C@@H](N)Cc1c[nH]cn1)[C@@H](C)O)C(=O)N[C@@H](CO)C(=O)N[C@@H](CO)C(=O)N[C@@H](Cc1ccc(O)cc1)C(=O)N[C@@H](CC(C)C)C(=O)N[C@@H](CCC(=O)O)C(=O)NCC(=O)N[C@@H](CCC(=O)O)C(=O)N[C@@H](C)C(=O)N[C@@H](C)C(=O)N[C@@](C)(CCCCN)C(=O)N[C@@H](CCC(=O)O)C(=O)N[C@@H](Cc1ccccc1)C(=O)N[C@H](C(=O)N[C@@H](CCCCNC(=O)COCCOCCNC(=O)COCCOCCNC(=O)CC[C@H](NC(=O)CCCCCCCCCCC)C(=O)O)C(=O)N[C@@H](Cc1c[nH]c2ccccc12)C(=O)N[C@H](C(=O)N[C@H](C(=O)N[C@@H](CCC(=O)O)C(=O)NCC(=O)NCC(N)=O)C(C)C)C(C)C)[C@@H](C)CC)C(=O)O [compound 256] (H-H[Aib]EGS[αMeF]TSDK([AEEA-AEEA-γGlu-Lauroyl])SSYLEGEAA[αMeK]EFIK([AEEA-AEEA-γGlu-Lauroyl])WVVEGG-NH2; N-terminus assumed)

- EC50 ([2]; Table 12, tris-lipidated peptides, mean of n1 and n2, read-out: INS1e assay EC50 Mean pM GLP-1R): 3660 pM
Compound: CCCCCCCCCCCC(=O)N[C@@H](CCC(=O)NCCOCCOCC(=O)NCCOCCOCC(=O)NCCCC[C@H](NC(=O)[C@H](C)NC(=O)[C@@H](NC(=O)[C@H](Cc1ccccc1)NC(=O)[C@H](CCCCNC(=O)COCCOCCNC(=O)COCCOCCNC(=O)CC[C@H](NC(=O)CCCCCCCCCCC)C(=O)O)NC(=O)[C@](C)(CCCCN)NC(=O)[C@H](C)NC(=O)[C@H](C)NC(=O)[C@H](CCC(=O)O)NC(=O)CNC(=O)[C@H](CCC(=O)O)NC(=O)[C@H](CCCCNC(=O)COCCOCCNC(=O)COCCOCCNC(=O)CC[C@H](NC(=O)CCCCCCCCCCC)C(=O)O)NC(=O)[C@H](Cc1ccc(O)cc1)NC(=O)[C@H](CO)NC(=O)[C@](C)(CO)NC(=O)[C@@H](NC(=O)[C@H](CC(=O)O)NC(=O)[C@H](CO)NC(=O)[C@@H](NC(=O)[C@](C)(Cc1ccccc1)NC(=O)[C@H](CO)NC(=O)CNC(=O)[C@H](CCC(=O)O)NC(=O)C(C)(C)NC(=O)[C@@H](N)Cc1c[nH]cn1)[C@@H](C)O)C(C)C)[C@@H](C)CC)C(=O)N[C@H](C(=O)N[C@H](C(=O)N[C@@H](CCC(=O)O)C(=O)NCC(=O)NCC(N)=O)C(C)C)C(C)C)C(=O)O [compound 470] (H-H[Aib]EGS[αMeF]TSDV[αMeS]SYK([AEEA-AEEA-γGlu-Lauroyl])EGEAA[αMeK]K([AEEA-AEEA-γGlu-Lauroyl])FIAK([AEEA-AEEA-γGlu-Lauroyl])VVEGG-NH2; N-terminus assumed)

— US20210221866A1, “PROTEASE-RESISTANT LIPIDATED GLP-1 ANALOGS” (MEDIMMUNE LIMITED, priority 2015, published 2021)
